Source: the NIST ThermoML archive (doi:10.1016/j.fluid.2007.12.005)
“And” between values parts separate entries of the source, which are not always exact repeats. Identical values can stand only once. ± gives the expanded uncertainty stated by the source.

Conditions: 313.15 K; Liquid; Closed cell (Static) method
In the case of CCCCCCC [heptane], the “vapor or sublimation pressure” value is reported as 12.31 ± 0.056 kPa and 12.32 ± 0.056 kPa. In the case of C=CCCCC [hex-1-ene], the “vapor or sublimation pressure” value is reported as 44.96 ± 0.24 kPa and 44.95 ± 0.24 kPa. With CCOC(C)(C)C [2-ethoxy-2-methylpropane] the “vapor or sublimation pressure” value was 31.64 ± 0.12 kPa and 31.65 ± 0.12 kPa.
